Laboratory results as given in US9169254B2, “Spiroimidazolone derivative” (Chugai Seiyaku Kabushiki Kaisha, priority 2009, dated 2015).
Where a name gives a salt, the structure may show the parent alone.

These compounds were tested against T1, human PTH1 receptor (Homo sapiens, UniProt Q03431) (assay: In vitro cAMP signal activity in HKRK-B7 cells (LLC-PK1 cells overexpressing the human PTH1 receptor)). Conditions: HKRK-B7 cells; compound at 1×10^−3 M; cAMP produced as percentage of that produced by hPTH(1-34) at 100 nM.
T1 sequence (Q03431 27-593): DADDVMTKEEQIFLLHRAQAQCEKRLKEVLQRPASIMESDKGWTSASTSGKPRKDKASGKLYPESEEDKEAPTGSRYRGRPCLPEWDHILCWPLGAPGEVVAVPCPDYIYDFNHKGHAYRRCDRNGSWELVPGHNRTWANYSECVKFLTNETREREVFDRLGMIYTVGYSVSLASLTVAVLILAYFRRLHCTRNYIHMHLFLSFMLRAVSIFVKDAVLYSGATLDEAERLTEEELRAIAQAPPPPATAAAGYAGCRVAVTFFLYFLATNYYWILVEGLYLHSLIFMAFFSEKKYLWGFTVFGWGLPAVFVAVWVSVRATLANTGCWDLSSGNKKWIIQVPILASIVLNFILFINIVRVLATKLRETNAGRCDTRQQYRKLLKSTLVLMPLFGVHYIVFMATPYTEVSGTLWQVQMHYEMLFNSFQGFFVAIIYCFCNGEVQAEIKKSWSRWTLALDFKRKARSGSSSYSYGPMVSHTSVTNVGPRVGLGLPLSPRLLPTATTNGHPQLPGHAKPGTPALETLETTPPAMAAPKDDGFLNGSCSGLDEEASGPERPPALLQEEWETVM
Type: cell-based

Row | cAMP production activity (%) | SMILES
1 | 81 | Cc1cc(C(=O)N2CCCC2)ccc1CCS(=O)(=O)N1CCC2(CC1)N=C(c1ccc(F)c(C(F)(F)F)c1)NC2=O [Compound 856, 2-(4-fluoro-3-trifluoromethyl-phenyl)-8-{2-[2-methyl-4-(pyrrolidine-1-carbonyl)-phenyl]-ethanesulfonyl}-1,3,8-triaza-spiro[4.5]dec-1-en-4-one]
2 | 18 | Cc1cc(OC2CCNCC2)ccc1/C=C/S(=O)(=O)N1CCC2(CC1)N=C(c1cccc(OC(F)(F)F)c1)NC2=O [Compound 1283, 8-{(E)-2-[2-Methyl-4-(piperidin-4-yloxy)-phenyl]-ethenesulfonyl}-2-(3-trifluoromethoxy-phenyl)-1,3,8-triaza-spiro[4.5]dec-1-en-4-one trifluoroacetate]
3 | 4.3 | Cc1cc(C(=O)N(C)C)ccc1CCS(=O)(=O)N1CCC2(CC1)N=C(c1cccc(OC(F)(F)F)c1)N=C2NCC1CCCCC1 [Compound 898, 4-{2-[4-(cyclohexylmethyl-amino)-2-(3-trifluoromethoxy-phenyl)-1,3,8-triaza-spiro[4.5]deca-1,3-diene-8-sulfonyl]-ethyl}-3,N,N-trimethyl-benzamide]
4 | 99 | Cc1cc(N(C)C(N)=O)cc(C)c1/C=C/[S@TB4](=O)(=O)N1CCC2(CC1)N=C(c1cccc(CCCC(F)(F)F)c1)NC2=O [Compound 1089, 1-[3,5-dimethyl-4-((E)-2-{4-oxo-2-[3-(4,4,4-trifluoro-butyl)-phenyl]-1,3,8-triaza-spiro[4.5]dec-1-ene-8-sulfonyl}-vinyl)-phenyl]-1-methyl-urea]
5 | 151 | CCCCCCCCCC1=NC2(CCN(S(=O)(=O)C(F)(F)Cc3c(C)cc(N(C)C(N)=O)cc3C)CC2)C(=O)N1 [Compound 1086, 1-{4-[2,2-Difluoro-2-(2-nonyl-4-oxo-1,3,8-triaza-spiro[4.5]dec-1-ene-8-sulfonyl)-ethyl]-3,5-dimethyl-phenyl}-1-methyl-urea]
6 | 73 | Cc1cc(N(C[C@H](O)CO)C(N)=O)cc(C)c1CCS(=O)(=O)N1CCC2(CC1)N=C(C1CCC(C)CC1)NC2=O (stereo partly drawn) [Compound 830, 1-((S)-2,3-dihydroxy-propyl)-1-(3,5-dimethyl-4-{2-[2-(4-methyl-cyclohexyl)-4-oxo-1,3,8-triaza-spiro[4.5]dec-1-ene-8-sulfonyl]-ethyl}-phenyl)-urea]
7 | 74 | CC(=O)Nc1ccc(CCS(=O)(=O)N2CCC3(CC2)N=C(c2ccccc2C#N)NC3=O)c(C)c1 [Compound 908, N-(4-{2-[2-(2-cyano-phenyl)-4-oxo-1,3,8-triaza-spiro[4.5]dec-1-ene-8-sulfonyl]-ethyl}-3-methyl-phenyl)-acetamide]
8 | 66 | Cc1cc(N(C)C(=O)C(F)(F)F)cc(C)c1CCS(=O)(=O)N1CCC2(CC1)N=C(C1CCCC(C)C1)NC2=O (stereo not drawn) [Compound 932, N-(3,5-Dimethyl-4-{2-[2-(3-methyl-cyclohexyl)-4-oxo-1,3,8-triaza-spiro[4.5]dec-1-ene-8-sulfonyl]-ethyl}-phenyl)-2,2,2-trifluoro-N-methyl-acetamide]
9 | 80 | Cc1cc(CN2C(=O)CNC2=O)cc(C)c1CCS(=O)(=O)N1CCC2(CC1)N=C(C1CCC(CCC(F)(F)F)CC1)NC2=O (stereo not drawn) [Compound 774, 3-[3,5-dimethyl-4-(2-{4-oxo-2-[4-(3,3,3-trifluoro-propyl)-cyclohexyl]-1,3,8-triaza-spiro[4.5]dec-1-ene-8-sulfonyl}-ethyl)-benzyl]-imidazolidine-2,4-dione]
10 | 33 | O=C1NC(C2CCCCC2)=NC12CCN(S(=O)(=O)CC(O)c1cccc3c1ccn3C[C@H](O)CO)CC2 (stereo partly drawn) [Compound 1374, 2-Cyclohexyl-8-{2-[1-((S)-2,3-dihydroxy-propyl)-1H-indol-4-yl]-2-hydroxy-ethanesulfonyl}-1,3,8-triaza-spiro[4.5]dec-1-en-4-one]
11 | 54 | Cc1cc(N(CCO)C(N)=O)cc(C)c1/C=C/S(=O)(=O)N1CCC2(CC1)N=C(c1cccc(OC(F)(F)F)c1)NC2=O [Compound 605, 1-(3,5-dimethyl-4-{(E)-2-[4-oxo-2-(3-trifluoromethoxy-phenyl)-1,3,8-triaza-spiro[4.5]dec-1-ene-8-sulfonyl]-vinyl}-phenyl)-1-(2-hydroxy-ethyl)-urea]
12 | 76 | Cc1cc(N2NCCC2=O)ccc1CCS(=O)(=O)N1CCC2(CC1)N=C([C@H]1CC[C@H](C)CC1)NC2=O [Compound 834, 2-(4-methyl-cyclohexyl)-8-{2-[2-methyl-4-(5-oxo-pyrazolidin-1-yl)-phenyl]-ethanesulfonyl}-1,3,8-triaza-spiro[4.5]dec-1-en-4-one]
13 | 59 | CC(=O)Nc1ccc(CCS(=O)(=O)N2CCC3(CC2)N=C(C2CCC(OCCC(F)(F)F)CC2)NC3=O)c(C)c1 (stereo not drawn) [Compound 921, N-[3-methyl-4-(2-{4-oxo-2-[4-(3,3,3-trifluoro-propoxy)-cyclohexyl]-1,3,8-triaza-spiro[4.5]dec-1-ene-8-sulfonyl}-ethyl)-phenyl]-acetamide]
14 | 60 | Cc1cc(OC[C@H](O)CO)cc(C)c1/C=C/S(=O)(=O)N1CCC2(CC1)N=C(C1CCC(CCC(F)(F)F)CC1)NC2=O (stereo partly drawn) [Compound 697, 8-{(E)-2-[4-((R)-2,3-Dihydroxy-propoxy)-2,6-dimethyl-phenyl]-ethenesulfonyl}-2-[4-(3,3,3-trifluoro-propyl)-cyclohexyl]-1,3,8-triaza-spiro[4.5]dec-1-en-4-one]

The remaining lines, values behind:

Row | SMILES | cAMP production activity (%)
15 | O=C1NC(c2ccc(Cl)cc2Cl)=NC12CCN(S(=O)(=O)c1cccc3cccnc13)CC2 [Compound 48, 2-(2,4-Dichloro-phenyl)-8-(quinoline-8-sulfonyl)-1,3,8-triaza-spiro[4.5]dec-1-en-4-one] | 25
16 | CN(C)C(=O)Nc1ccc(CCS(=O)(=O)N2CCC3(CC2)N=C(C2CCCCC2)NC3=O)c(C(F)(F)F)c1 [Compound 273, 3-{4-[2-(2-cyclohexyl-4-oxo-1,3,8-triaza-spiro[4.5]dec-1-ene-8-sulfonyl)-ethyl]-3-trifluoromethyl-phenyl}-1,1-dimethyl-urea] | 55
17 | Cc1cc(C(=O)N(C)C)ccc1CCS(=O)(=O)N1CCC2(CC1)N=C(c1ccc(Cl)cc1F)NC2=O [Compound 129, 4-{2-[2-(4-chloro-2-fluoro-phenyl)-4-oxo-1,3,8-triaza-spiro[4.5]dec-1-ene-8-sulfonyl]-ethyl}-3,N,N-trimethyl-benzamide] | 3.7
18 | Cc1cc(C(=O)N2CCC(C)(O)CC2)cc(C)c1/C=C/S(=O)(=O)N1CCC2(CC1)N=C(c1ccc(OCCCC(F)(F)F)c(C(F)(F)F)c1)NC2=O [Compound 1204, 8-{(E)-2-[4-(4-hydroxy-4-methyl-piperidine-1-carbonyl)-2,6-dimethyl-phenyl]-ethenesulfonyl}-2-[4-(4,4,4-trifluoro-butoxy)-3-trifluoromethyl-phenyl]-1,3,8-triaza-spiro[4.5]dec-1-en-4-one] | 83
19 | Cc1cc(N(C)C(N)=O)cc(C)c1/C=C/S(=O)(=O)N1CCC2(CC1)N=C(c1cccc(OCCCC(F)(F)F)c1)NC2=O [Compound 1019, 1-[3,5-dimethyl-4-((E)-2-{4-oxo-2-[3-(4,4,4-trifluoro-butoxy)-phenyl]-1,3,8-triaza-spiro[4.5]dec-1-ene-8-sulfonyl}-vinyl)-phenyl]-1-methyl-urea] | 72
20 | Cc1cc(CN2C(=O)CNC2=O)cc(C)c1/C=C/S(=O)(=O)N1CCC2(CC1)N=C(C1CCC(CCC(F)(F)F)CC1)NC2=O (stereo not drawn) [Compound 554, 3-[3,5-dimethyl-4-((E)-2-{4-oxo-2-[4-(3,3,3-trifluoro-propyl)-cyclohexyl]-1,3,8-triaza-spiro[4.5]dec-1-ene-8-sulfonyl}-vinyl)-benzyl]-imidazolidine-2,4-dione] | 82
21 | Cc1cc(C(=O)N2CC[C@H](O)C2)cc(C)c1/C=C/S(=O)(=O)N1CCC2(CC1)N=C(c1cccc(OC(F)(F)F)c1)NC2=O [Compound 402, 8-{(E)-2-[4-((S)-3-hydroxy-pyrrolidine-1-carbonyl)-2,6-dimethyl-phenyl]-ethenesulfonyl}-2-(3-trifluoromethoxy-phenyl)-1,3,8-triaza-spiro[4.5]dec-1-en-4-one] | 85
22 | CC(=O)N(CCO)c1ccc(C)c(CCS(=O)(=O)N2CCC3(CC2)N=C(c2cccc(OC(F)(F)F)c2)NC3=O)c1 [Compound 326, N-(2-Hydroxy-ethyl)-N-(4-methyl-3-{2-[4-oxo-2-(3-trifluoromethoxy-phenyl)-1,3,8-triaza-spiro[4.5]dec-1-ene-8-sulfonyl]-ethyl}-phenyl)-acetamide] | 76
23 | CN(C)C(=O)NCCc1ccc(/C=C/S(=O)(=O)N2CCC3(CC2)N=C(C2CCCCC2)NC3=O)cc1 [Compound 490, 3-(2-{4-[(E)-2-(2-cyclohexyl-4-oxo-1,3,8-triaza-spiro[4.5]dec-1-ene-8-sulfonyl)-vinyl]-phenyl}-ethyl)-1,1-dimethyl-urea] | 26

Same assay, conditions: HKRK-B7 cells; compound at 3×10^−4 M (* Compound 15); cAMP produced as percentage of that produced by hPTH(1-34) at 100 nM

Row | cAMP production activity (%) | SMILES
24 | 1.8* % | CC(=O)N1CCC(C2=NC3(CCN(S(=O)(=O)c4cccc(Cl)c4)CC3)C(=O)N2)CC1 [Compound 15, 2-(1-acetyl-piperidin-4-yl)-8-(3-chloro-benzenesulfonyl)-1,3,8-triaza-spiro[4.5]dec-1-en-4-one]
